From patent publication US20070037143A1, “Method for screening for protease modulators” (DIGILAB BioVisioN GmbH, priority 2005, published 2007)
Entries after “also recorded” stand apart in the source; their conditions may differ.

Tests used:
Type in all cases: in vivo
[1] = biological target: T1, DPP4 (Rattus norvegicus, UniProt P14740); experiment: Panels of pairs of peptides/proteins (linear model): correlation to inhibitor concentration or to decreased DPP4 activity; details: for Correlation coefficient of Panel 1 + 2: panel of both peptides/proteins; for Correlation coefficient of Pep./Prot. 1: single peptide/protein 1 of the panel; for Correlation coefficient of Pep./Prot. 2: single peptide/protein 2 of the panel
T1 construct: from tissue; host or cells: Wistar rats dosed in vivo; activity read in tail-vein plasma
Method: In addition, networks of peptides and/or proteins were calculated. This allows, for example, to identify panels of peptides and/or proteins, which enable to better reflect the biological impact of the inhibitors (FIG. 5/Table 2). Combining two peptides and/or proteins in these panels increased the reliability of the prediction (e.g. concentration of inhibitor, “before/after change in DPP4 activity”) possible by evaluating these peptide/protein panels. These panels were determined by comprehensively combining peptide and/or protein signals to pairs of peptide and/or protein signals. In a “linear model”, the signal intensities of the peptide and/or protein pairs were treated as independent variables, and the endpoint DPP4 concentration (or change in DPP4 activity) was treated as the dependent variable. The “linear model” was then calculated (e.g. with R-package, version 2.00 (R Foundation for Statistical Computing, Vienna, Austria) or S-plus, version 6.0 (Insightful AG, Reinach, Switzerland), etc.).
In addition to panels of peptides and/or proteins, surrogate networks of peptides and/or proteins can also be predicted, which peptides and/or proteins can replace each other, i.e. the peptides and/or proteins are surrogates of each other. Using this method it is, for example, possible to identify peptides and/or proteins which have the same diagnostic value. […] In addition, it is possible to choose those peptides and/or proteins of a surrogate network, which can be measured with the least effort. Both strategies can be combined to save time, resources, valuable or limited patient samples, etc. For determining these surrogate networks and peptide and/or protein panels, methods such as the methods described in PCT/EP 2005/000090 can be used.

[2] = biological target: T1, DPP4; experiment: Peptide display (RP chromatography + MALDI-MS) of rat plasma: Spearman correlation of peptide/protein signals with inhibitor concentration or before/after change in DPP4 activity; set-up: key to Correlation of mass spectrometric signal with concentration of inhibitor AB & Contr.In. A / Correlation of mass spectrometric signal with concentration of inhibitor Contr.In. C: With positive (pos.) correlation regarding the inhibitor concentration is meant that higher concentrations of inhibitor result in higher concentration of a peptide or protein
Method: The DPP4 inhibitor AB192 (bis(4-acetamidophenyl)-1-(S)-prolylpyrrolidine-2-(R,S)-phosphonate) (J. Med. Chem., 1999, 42:1041-52) was kindly provided by Ingrid De Meester (University of Antwerp, Campus Drie Eiken, Department of Pharmaceutical Sciences, Universiteitsplein 1, B-2610 Wilrijk-Antwerpen). AB192, an irreversible inhibitor of DPP4, was used at 0.32, 1.00 and 3.2 mg/kg body weight. The control inhibitor (Contr.In.) was used at 0.3, 1.0 and 3.0 mg/kg body weight. Eight week old Wistar rats (315-320 g body weight) received either of the inhibitors (8 animals for each inhibitor concentration of each inhibitor) or were treated with vehicle (50 mM sodium phosphate buffer; pH 7.4) (4 animals). The rats received the inhibitors or vehicle by subcutaneous injection into the fat tissue of the neck using a 27-G needle. Blood samples (100 μl) for DPP4 activity measurements were drawn from the tail vein before injection and at the end of the experiment 1 h after injection of the DPP4 inhibitors. At this point, the rats were anaesthetised using a mixture of ketamin (9 mg/100 g body weight) and rompun (0.2 mg/100 g body weight). Additionally, rats received a short burst of ether for quick anaesthesia. The thorax was opened immediately and 4 to 6 ml of blood taken from the right ventricle into ethylenediaminetetraacetic acid (EDTA) laminated syringes and transferred into a 15 ml tube filled with EDTA at a final concentration of 2.5 mg/ml.
Rat blood samples were consecutively centrifuged at room temperature for 10 min at 2000×g and for 15 min at 2500×g. The resulting platelet poor plasma was stored at −80° C. until analysis. For reduction of the protein load of the plasma, the plasma sample was diluted 1:4 with 8 M guanidinium chloride solution at room temperature and for quality control purposes a peptide standard mix was added resulting in a final concentration of 300 to 800 pM of each individual standard peptide added. The peptides added were: substance P, somatostatin-14, neurotensin, renin substrate (porcine), adrenocorticotropic hormone (ACTH)(1-17), big endothelin-1(19-38), ACTH(18-39), beta-Endorphin(6-31), adrenocorticotropic hormone(1-24), calcitonin (human), insulin B chain oxide (bovine), ACTH(7-38), pro34-neuropeptide Y (porcine) and growth hormone-releasing factor (GRF)(1-44). All Peptides or proteins represent the human sequence, if not indicated to the contrary and the numbers in brackets following some of the peptides indicate the amino acid positions of the complete sequence including said peptide. Prior to use, the ultrafiltration devices are rinsed with distilled water. Ultrafiltration was done using Amicon Ultra filter devices with a molecular weight cut-off of 50 kDa (Millipore, Bedford, USA), which were centrifuged according to the manufacturer's instructions at 4000×g for 60 min at room temperature in a swinging bucket rotor. Finally, the pH of the filtrate was adjusted to pH 2 to 3 using concentrated HCl (30% v/v). If the sample (filtrate) was not directly further processed, it was stored at −80° C. A 750 μl-equivalent of plasma was used per chromatographic run.
The separation of peptides and/or proteins was done using a Source 5RPC, 4,6×150 mm reverse phase chromatography column (Amersham Biosciences Europe GmbH, Freiburg, Germany). Buffer A was 0.06% (v/v) (volume per volume) trifluoroacetic acid (TFA) in distilled water and buffer B was 0.05% (v/v) TFA, 80% (v/v) acetonitrile in distilled water. The chromatography took place at 33° C. using a HP 1100 HPLC with a micro flow cell both supplied by Agilent Technologies, Böblingen, Germany. The samples were diluted to 5.5 ml using a 0.1% (v/v) stock solution of trifluoroacetic acid. Prior to chromatography, the samples were centrifuged at 4° C. and 15 000×g for 10 minutes and finally 5 ml of sample were loaded onto the chromatography column representing an equivalent of 750 μl plasma. […]

[3] = biological target: T1, DPP4; experiment: DPP4 activity in plasma of rats injected with DPP4 inhibitors (G-P-4 nitroanilide substrate, 405 nm); details: Wistar rats, s.c., 0.3-3.2 mg/kg, 1 h after injection; FIG. 2
Method: The DPP4 inhibitor AB192 (bis(4-acetamidophenyl)-1-(S)-prolylpyrrolidine-2-(R,S)-phosphonate) (J. Med. Chem., 1999, 42:1041-52) was kindly provided by Ingrid De Meester (University of Antwerp, Campus Drie Eiken, Department of Pharmaceutical Sciences, Universiteitsplein 1, B-2610 Wilrijk-Antwerpen). AB192, an irreversible inhibitor of DPP4, was used at 0.32, 1.00 and 3.2 mg/kg body weight. The control inhibitor (Contr.In.) was used at 0.3, 1.0 and 3.0 mg/kg body weight. Eight week old Wistar rats (315-320 g body weight) received either of the inhibitors (8 animals for each inhibitor concentration of each inhibitor) or were treated with vehicle (50 mM sodium phosphate buffer; pH 7.4) (4 animals). The rats received the inhibitors or vehicle by subcutaneous injection into the fat tissue of the neck using a 27-G needle. […]
Blood samples taken from the tail vein were immediately centrifuged (2000×g; 10 min at room temperature) and plasma stored at −20° C. […] The 96-well plate was read immediately using a Tecan Genios microplate reader (Tecan Deutschland GmbH, Crailsheim, Germany) and measurements were taken at 37° C. over a period of time of 1 h at a wavelength of 405 nm. From the measured values the blank signal (plasma+HEPES buffer) was subtracted and data calculated as Units/litre (U/l). […]

[4] = with DPP4 activity in presence of AB (AB192 inhibitor)
[5] = with concentration of AB and Contr.In.
[6] = with concentration of AB (AB192 inhibitor)

T1 sequence (P14740 whole entry): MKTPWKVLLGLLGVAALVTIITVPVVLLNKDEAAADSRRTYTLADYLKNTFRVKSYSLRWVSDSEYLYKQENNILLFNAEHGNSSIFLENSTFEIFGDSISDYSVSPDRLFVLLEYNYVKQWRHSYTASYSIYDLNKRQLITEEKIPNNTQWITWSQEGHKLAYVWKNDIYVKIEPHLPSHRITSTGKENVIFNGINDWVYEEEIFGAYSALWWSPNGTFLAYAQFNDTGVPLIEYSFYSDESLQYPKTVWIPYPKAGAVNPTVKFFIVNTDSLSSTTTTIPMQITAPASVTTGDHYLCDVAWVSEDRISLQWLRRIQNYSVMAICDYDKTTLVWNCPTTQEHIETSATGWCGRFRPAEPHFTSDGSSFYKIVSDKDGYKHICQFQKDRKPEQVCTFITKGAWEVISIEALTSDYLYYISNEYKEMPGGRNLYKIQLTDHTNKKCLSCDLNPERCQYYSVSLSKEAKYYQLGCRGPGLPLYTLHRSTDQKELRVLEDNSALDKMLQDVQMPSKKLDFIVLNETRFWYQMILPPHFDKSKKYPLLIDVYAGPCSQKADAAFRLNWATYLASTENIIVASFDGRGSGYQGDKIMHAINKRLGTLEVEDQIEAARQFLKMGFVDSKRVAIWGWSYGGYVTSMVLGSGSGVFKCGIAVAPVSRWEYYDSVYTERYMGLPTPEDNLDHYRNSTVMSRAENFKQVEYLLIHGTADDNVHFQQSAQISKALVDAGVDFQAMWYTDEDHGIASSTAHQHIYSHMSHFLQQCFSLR

GAPGQNGEPGAKGERGAPGEKGEGGPPG [Peptide/Protein No. 45]
Correlation coefficient of Panel 1 + 2 [1, 4]: 0.54
Correlation coefficient of Pep./Prot. 1 [1, 4]: −0.38
Correlation coefficient of Pep./Prot. 2 [1, 4]: −0.4
Correlation of mass spectrometric signal with DPP4 inhibition by Contr.In. F ([2]; Spearman, before/after change in DPP4 activity with control inhibitor, but not AB192, n=31, |r|>0.61, rat plasma): neg.
correlation of mass spectrometric signal with the DPP4 activity measured in the same samples ([2]; plasma of rats treated with control inhibitor (Contr.In.), FIG. 3A, 4B): negatively

CC(=O)Nc1ccc(OP(=O)(Oc2ccc(NC(C)=O)cc2)C2CCCN2C(=O)[C@@H]2CCCN2)cc1 (stereo partly drawn) [AB192, bis(4-acetamidophenyl)-1-(S)-prolylpyrrolidine-2-(R,S)-phosphonate]
DPP4 activity in plasma [3]: inhibited the activity of DPP4 in vivo in rats in a dose dependent manner; also recorded: inhibit DPP4 activity in vivo in a dose-dependent manner

LPGPPGERGGPGSRGFPGADGVAGP [Peptide/Protein No. 2]
Correlation coefficient of Panel 1 + 2 [1, 5]: 0.59
Correlation coefficient of Pep./Prot. 1 [1, 5]: −0.52
Correlation coefficient of Pep./Prot. 2 [1, 5]: −0.52
Correlation of mass spectrometric signal with concentration of inhibitor AB & Contr.In. A ([2]; Spearman, correlates with concentration of AB192 and of control inhibitor, n=49, |r|>0.5, rat plasma 1 h after s.c. injection): pos.
correlation of mass spectrometric signal with the amount of the DPP4 inhibitor AB192 or the control inhibitor given to the rat ([2]; rat plasma, FIG. 3B): positively

PPGPPGPPGPPGPPS [Peptide/Protein No. 3]
Correlation coefficient of Panel 1 + 2 [1, 6]: 0.66
Correlation coefficient of Pep./Prot. 1 [1, 6]: −0.44
Correlation coefficient of Pep./Prot. 2 [1, 6]: 0.48
Correlation of mass spectrometric signal with concentration of inhibitor Contr.In. C ([2]; Spearman, concentration of control inhibitor, but not of AB192, n=27, |r|>0.61, rat plasma): pos.
correlation of mass spectrometric signal with the amount of control inhibitor (Contr.In.) given to the rat ([2]; rat plasma, FIG. 4A): positively
